Assay results published in US4039663A, “Daunomycins, process for their uses and intermediates” (Societa' Farmaceutici Italia S.p.A., priority 1975, dated 1977).
Values after ≈ are worked out from the molar mass of the structure shown. Like-named read-outs stand apart in the source and are kept apart here.

Columns and labels:
[1] = test system: Moloney Sarcoma Virus; assay: Foci formation by Moloney Sarcoma Virus in mouse embryo fibroblast cultures; format: cell-based; conditions: for IC50 / activity at 0.0062 µg/mL / activity at 0.025 µg/mL / activity at 0.1 µg/mL / activity at 0.4 µg/mL: Fibroblast, 72 h, 3 days treatment; for IC50: read-out: Foci Formation ID50 (A); for B/A: ratio ID50 cell proliferation (B) / ID50 foci formation (A), 4320 min; for activity at 0.0062 µg/mL: 0.0062 μg/ml; for activity at 0.0062 µg/mL / activity at 0.025 µg/mL / activity at 0.1 µg/mL / activity at 0.4 µg/mL: read-out: Foci Formation (% of controls); for activity at 0.025 µg/mL: 0.025 μg/ml; for activity at 0.1 µg/mL: 0.1 μg/ml; for activity at 0.4 µg/mL: 0.4 μg/ml
Description: (§1) The test compounds were evaluated on mouse embryo fibroblast cultures infected with MSV. After a treatment of three days, the inhibiting doses (ID50) were evaluated on cell proliferation and on MSV foci formation.
(§2) Effect of compounds (VI and (VII) on foci formation and on cell proliferation in cultured mice fibroblasts infected with Moloney Sarcoma Virus. (3 days treatment)

[2] = test system: HeLa cells; assay: Proliferative activity (colony counts) of cultured HeLa cells at different exposure times; format: cell-based; conditions: Homo sapiens; for IC50: read-out: ID50 (50% inhibition of colonies); for activity at 0.025 µg/mL: 0.025 μg/ml; for activity at 0.05 µg/mL: 0.05 μg/ml; for activity at 0.1 µg/mL: 0.1 μg/ml; for activity at 0.25 µg/mL: 0.25 μg/ml; for activity at 0.5 µg/mL: 0.5 μg/ml; for activity at 1 µg/mL: 1 μg/ml
Excerpt: (§3) Tests in vitro on the effect of compounds (VI) and (VII) on the micotic index and the proliferative activity of cultured HeLa cells at different exposure times. The results in Table 4 are expressed as a percent of the untreated controls. The ID50 represents the dose which gives a 50% inhibition of colonies.

[3] = Cell proliferation in cultured mice fibroblasts infected with Moloney Sarcoma Virus; format: cell-based, mouse; conditions: mouse, embryo fibroblasts; 3 days treatment; read-out: Cell Proliferation ID50 (B)
Description: as §1, §2

[4] = test system: ASCITES SARCOMA 180; assay: Action on ascites sarcoma 180 in mice; format: in vivo, mice (Swiss CD 1); conditions: for Average Survival Time (%): 1 day after inoculation, untreated = 100%
Description: The tests were carried out on groups of 10 female mice (Swiss CD 1). The compounds under examination were administered intraperitoneally in varying doses to the test animals 1 day after intraperitoneal inoculation with 1 × 10^6 tumor cells per animal. The average survival time is given in Table 1 as a percentage of the survival time of untreated animals, which is arbitrarily designated as 100%. Also given in Table 1 are the number of long term survivors.

[5] = test system: a number of experimental tumors; assay: Antitumor activity on experimental tumors in mice (summary); format: in vivo; conditions: mean survival time, non-toxic doses
Description: (§4) The antitumor activity of the novel antibiotic compounds of the invention, i.e., 4'-epi-daunomycin (VI) and 4'-epidaunomycin, β-anomer, (VII) was evaluated on several transplanted tumors in mice, and in in vitro tests, in comparison with the known antitumor agent daunomycin (IV).

[6] = test system: single myocardial cells isolated from the hearts of newborn mice
Description: The cardiotoxic activity of compound (VI) was evaluated in vitro on single myocardial cells isolated by trypsinization from the hearts of newborn mice (Necco A., Dasdia T. IRCS, 2: 1293, 1974). After 3-4 days, the cell cultures, showing clusters of beating cells, are studied both as to frequency and rhythym.

[7] = test system: TR[…] LEUKEMIA; assay: Transplanted Gross leukemia in mice; format: in vivo, Inbred C3 H female mice; conditions: first to fifth day, control = 100
Excerpt: Inbred C3 H female mice were intravenously inoculated with a suspension of leukemia lymphonodes and spleen cells (2.5 × 10^6 leukemia cells/mouse) and treated, intravenously, from the first to the fifth day after inoculation with the compounds under examination.

[8] = test system: oncogenic viruses; assay: Cell transformation induced by oncogenic viruses (summary); format: cell-based
Description: as §4

[9] = test system: mouse embryo fibroblast cultures infected with MSV; assay: Cell proliferation in cultured mice fibroblasts infected with Moloney Sarcoma Virus; format: cell-based; conditions: Mus musculus, Fibroblast, 72 h, 3 days treatment, read-out: Cell Proliferation (% of controls); for activity at 0.0062 µg/mL: 0.0062 μg/ml; for activity at 0.025 µg/mL: 0.025 μg/ml; for activity at 0.1 µg/mL: 0.1 μg/ml; for activity at 0.4 µg/mL: 0.4 μg/ml
Description: as §1, §2

[10] = test system: HeLa cells; assay: Micotic index of cultured HeLa cells at different exposure times; format: cell-based; conditions: Homo sapiens; for activity at 0.025 µg/mL: 0.025 μg/ml; for activity at 0.05 µg/mL: 0.05 μg/ml; for activity at 0.1 µg/mL: 0.1 μg/ml; for activity at 0.25 µg/mL: 0.25 μg/ml; for activity at 0.5 µg/mL: 0.5 μg/ml; for activity at 1 µg/mL: 1 μg/ml
Excerpt: as §3

[11] = test system: cultured cells; assay: Inhibition of cell mitosis and proliferation in cultured cells (summary); format: cell-based; conditions: cultured cells in vitro
Description: as §4

[12] = 2h, value marked * Metaphasic block

Work on `COc1cccc2c1C(=O)c1c(O)c3c(c(O)c1C2=O)C[C@@](O)(C(C)=O)C[C@@H]3O[C@H]1C[C@H](N)[C@H](O)[C@H](C)O1` [IV, 7-O-(3'-amino-2',3',6'-trideoxy-α-L-lyxohexopyranosyl)-daunomycin-one, reference compound] yielded an IC50 [1] of 0.006 µg/mL (≈ 0.0114 µM), a B/A [1] of 1.4 and an IC50 ([2]; 2h exposure) of 0.098 µg/mL (≈ 0.186 µM). For the same compound, the IC50 ([2]; 8h exposure) was 0.036 µg/mL (≈ 0.0682 µM), the IC50 ([2]; 24h exposure) was 0.021 µg/mL (≈ 0.0398 µM) and the CC50 at 72 h [3] was 0.0086 µg/mL (≈ 0.0163 µM).
In the case of `COc1cccc2c1C(=O)c1c(O)c3c(c(O)c1C2=O)C[C@@](O)(C(C)=O)C[C@@H]3O[C@H]1C[C@H](N)[C@@H](O)[C@H](C)O1` [VI, 7-0-(3'-amino-2',3',6'-trideoxy-α-L-arabinohexopyranosyl)-daunomycinone], the “Long Term Survivors after 60 days” value ([4]; 0.22 mg/kg i.p.) was 1/10, the “Average Survival Time (%)” value ([4]; 0.22 mg/kg i.p.) was 111.1% and the “Long Term Survivors after 60 days” value ([4]; 1.1 mg/kg i.p.) was 1/10. The “Average Survival Time (%)” value ([4]; 1.1 mg/kg i.p.) was 120.8%, the “Long Term Survivors after 60 days” value ([4]; 5.7 mg/kg i.p.) was 0/10 and the “Average Survival Time (%)” value ([4]; 5.7 mg/kg i.p.) was 174.5%. The “antitumor activity in mice” value [5] was “increase in the mean survival time at non-toxic doses”, the activity at 0.0062 µg/mL [1] was 51% and the activity at 0.025 µg/mL [1] was 0%. The activity at 0.1 µg/mL [1] was 0%, the activity at 0.4 µg/mL [1] was 0% and the IC50 [1] was 0.006 µg/mL (≈ 0.0114 µM). The B/A [1] was 2.1, the cardiotoxic activity [6] was “lower than that of daunomycin (IV)” and the “Average Survival Time (%)” value ([7]; 1.5 mg/kg daily i.v.) was 115%. The “Average Survival Time (%)” value ([7]; 2.25 mg/kg daily i.v.) was 143%, the “Average Survival Time (%)” value ([7]; 3 mg/kg daily i.v.) was 162% and the “Average Survival Time (%)” value ([7]; 3.75 mg/kg daily i.v.) was 122%. For the same compound, the “Average Survival Time (%)” value ([7]; 4.5 mg/kg daily i.v.) was 120%, the “activity on cell transformation induced by oncogenic viruses” value [8] was “substantial activity on cell transformation induced by oncogenic viruses” and the activity at 0.025 µg/mL ([2]; 2h) was 113%. It also gave an activity at 0.025 µg/mL ([2]; 8h) of 88%, an activity at 0.025 µg/mL ([2]; 24h) of 48% and an activity at 0.05 µg/mL ([2]; 2h) of 115%. For the same compound, the activity at 0.05 µg/mL ([2]; 8h) was 56%, the activity at 0.05 µg/mL ([2]; 24h) was 23% and the activity at 0.1 µg/mL ([2]; 2h) was 77%. The activity at 0.1 µg/mL ([2]; 8h) was 23%, the activity at 0.1 µg/mL ([2]; 24h) was 3% and the IC50 ([2]; 2h exposure) was 0.16 µg/mL (≈ 0.303 µM). It also gave an IC50 ([2]; 8h exposure) of 0.056 µg/mL (≈ 0.106 µM), an IC50 ([2]; 24h exposure) of 0.027 µg/mL (≈ 0.0512 µM) and a CC50 at 72 h [3] of 0.013 µg/mL (≈ 0.0246 µM). It also gave an activity at 0.0062 µg/mL [9] of 75%, an activity at 0.025 µg/mL [9] of 23% and an activity at 0.1 µg/mL [9] of 14%. For the same compound, the activity at 0.4 µg/mL [9] was 1%, the activity at 0.025 µg/mL [10, 12] was 226% and the activity at 0.025 µg/mL ([10]; 4h) was 100%. For the same compound, the activity at 0.025 µg/mL ([10]; 8h) was 117%, the activity at 0.05 µg/mL [10, 12] was 189% and the activity at 0.05 µg/mL ([10]; 4h) was 103%. The activity at 0.05 µg/mL ([10]; 8h) was 122%, the activity at 0.1 µg/mL ([10]; 2h) was 79% and the activity at 0.1 µg/mL ([10]; 4h) was 140%. For the same compound, the activity at 0.1 µg/mL ([10]; 8h) was 0% and the “inhibition of cell mitosis and proliferative activity” value [11] was “powerful inhibitors of cell mitosis and proliferative activity in cultured cells in vitro”.
For `COc1cccc2c1C(=O)c1c(O)c3c(c(O)c1C2=O)C[C@@](O)(C(C)=O)C[C@@H]3O[C@@H]1C[C@H](N)[C@@H](O)[C@H](C)O1` [VII, 7-O-(3'-amino-2',3',6'-trideoxy-β-L-arabinohexopyranosyl)-daunomycinone], the “Long Term Survivors after 60 days” value ([4]; 0.26 mg/kg i.p.) was 0/10, the “Average Survival Time (%)” value ([4]; 0.26 mg/kg i.p.) was 96.6% and the “Long Term Survivors after 60 days” value ([4]; 1.3 mg/kg i.p.) was 1/10. For the same compound, the “Average Survival Time (%)” value ([4]; 1.3 mg/kg i.p.) was 114.8%, the “Long Term Survivors after 60 days” value ([4]; 6.7 mg/kg i.p.) was 1/10 and the “Average Survival Time (%)” value ([4]; 6.7 mg/kg i.p.) was 118.6%. The “antitumor activity in mice” value [5] was “increase in the mean survival time at non-toxic doses”, the activity at 0.0062 µg/mL [1] was 48% and the activity at 0.025 µg/mL [1] was 44%. The activity at 0.1 µg/mL [1] was 5%, the activity at 0.4 µg/mL [1] was 0% and the IC50 [1] was 0.01 µg/mL (≈ 0.019 µM). For the same compound, the B/A [1] was 6.4, the “Average Survival Time (%)” value ([7]; 1.5 mg/kg daily i.v.) was 106% and the “Average Survival Time (%)” value ([7]; 2.25 mg/kg daily i.v.) was 102%. The “Average Survival Time (%)” value ([7]; 3 mg/kg daily i.v.) was 121%, the “activity on cell transformation induced by oncogenic viruses” value [8] was “substantial activity on cell transformation induced by oncogenic viruses” and the activity at 0.25 µg/mL ([2]; 2h) was 108%. It also gave an activity at 0.25 µg/mL ([2]; 8h) of 86%, an activity at 0.25 µg/mL ([2]; 24h) of 70% and an activity at 0.5 µg/mL ([2]; 2h) of 101%. The activity at 0.5 µg/mL ([2]; 8h) was 37%, the activity at 0.5 µg/mL ([2]; 24h) was 18% and the activity at 1 µg/mL ([2]; 2h) was 98%. The activity at 1 µg/mL ([2]; 8h) was 17%, the activity at 1 µg/mL ([2]; 24h) was 6% and the IC50 ([2]; 2h exposure) was greater than 1 µg/mL. It also gave an IC50 ([2]; 8h exposure) of 0.47 µg/mL (≈ 0.891 µM), an IC50 ([2]; 24h exposure) of 0.33 µg/mL (≈ 0.626 µM) and a CC50 at 72 h [3] of 0.064 µg/mL (≈ 0.121 µM). It also gave an activity at 0.0062 µg/mL [9] of 87%, an activity at 0.025 µg/mL [9] of 80% and an activity at 0.1 µg/mL [9] of 28%. For the same compound, the activity at 0.4 µg/mL [9] was 14%, the activity at 0.25 µg/mL ([10]; 2h) was 137% and the activity at 0.25 µg/mL ([10]; 4h) was 103%. It also gave an activity at 0.25 µg/mL ([10]; 8h) of 85%, an activity at 0.5 µg/mL ([10]; 2h) of 95% and an activity at 0.5 µg/mL ([10]; 4h) of 67%. The activity at 0.5 µg/mL ([10]; 8h) was 88%, the activity at 1 µg/mL ([10]; 2h) was 52% and the activity at 1 µg/mL ([10]; 4h) was 40%. The activity at 1 µg/mL ([10]; 8h) was 0% and the “inhibition of cell mitosis and proliferative activity” value [11] was “powerful inhibitors of cell mitosis and proliferative activity in cultured cells in vitro”.
